The source of these data is the supplement of paper PMC10307832.

Common to all, as to experiment: relative viability (nuclei count vs DMSO), 5 days (fraction); higher = more cells survive
Compound in the experiment “Decitabine + Crizotinib”: Nc1ncn([C@H]2C[C@H](O)[C@@H](CO)O2)c(=O)n1 [Decitabine] + C[C@@H](Oc1cc(-c2cnn(C3CCNCC3)c2)cnc1N)c1c(Cl)ccc(F)c1Cl [Crizotinib] (partner 1 µM)
Put shortly: (§1)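 Relative viability equals treated-well nuclei counts divided by vehicle-well nuclei counts. Counts came from 4× images of lung cancer cell lines grown in 1536-well plates for 5 days after pin-tool dosing on the day after seeding. Dosing used one drug alone or a fixed anchor-drug dose plus five library-drug doses (not always all listed) in √10 steps, and values are medians of duplicate plates.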

Compound in the experiment “Halofuginone + Foretinib”: O=C(C[C@H]1NCCC[C@@H]1O)Cn1cnc2cc(Br)c(Cl)cc2c1=O (racemic) [Halofuginone] + COc1cc2c(Oc3ccc(NC(=O)C4(C(=O)Nc5ccc(F)cc5)CC4)cc3F)ccnc2cc1OCCCN1CCOCC1 [Foretinib] (partner 0.25 µM)
The method in brief:
as §1

Compound in experiment [1]: O=C(C[C@H]1NCCC[C@@H]1O)Cn1cnc2cc(Br)c(Cl)cc2c1=O (racemic) [Halofuginone] + N=C(N)NC(=N)NCCc1ccccc1 [Phenformin] (partner 250 µM)
Put shortly: as §1

Compound in the experiment “Halofuginone + Dasatinib”: O=C(C[C@H]1NCCC[C@@H]1O)Cn1cnc2cc(Br)c(Cl)cc2c1=O (racemic) [Halofuginone] + Cc1nc(Nc2ncc(C(=O)Nc3c(C)cccc3Cl)s2)cc(N2CCN(CCO)CC2)n1 [Dasatinib] (partner 0.075 µM)
Put shortly: as §1

Regarding IA-LM, the relative viability with Decitabine + Crizotinib (first compound 0.04 µM) is 0.342; with Decitabine + Crizotinib (first compound 0.1265 µM), 0.274; with Decitabine + Crizotinib (first compound 0.4 µM), 0.2; with Decitabine + Crizotinib (first compound 1.265 µM), 0.191; in the experiment with Decitabine + Crizotinib (first compound 4 µM) it was 0.102; with Halofuginone + Foretinib (first compound 0.001 µM) it was 1.29. The relative viability amounted to 1.03 in the experiment with Halofuginone + Foretinib (first compound 0.003162 µM), 1.08 in the experiment with Halofuginone + Foretinib (first compound 0.01 µM), 0.982 with Halofuginone + Foretinib (first compound 0.03162 µM) and 0.07 with Halofuginone + Foretinib (first compound 0.1 µM).
In the case of NCI-H522, the relative viability in experiment [1] (first compound 0.001 µM) is 0.73; in experiment [1] (first compound 0.003162 µM), 0.653; in experiment [1] (first compound 0.01 µM), 0.649; in experiment [1] (first compound 0.03162 µM) it was 0.648; in experiment [1] (first compound 0.1 µM), 0.657; with Halofuginone + Dasatinib (first compound 0.001 µM) it was 0.894. In addition, the relative viability in the experiment with Halofuginone + Dasatinib (first compound 0.003162 µM) worked out at 0.863; with Halofuginone + Dasatinib (first compound 0.01 µM) it was 1.06; in the experiment with Halofuginone + Dasatinib (first compound 0.03162 µM), 0.806; with Halofuginone + Dasatinib (first compound 0.1 µM), 0.881.
As to NCI-H1299, the relative viability in the experiment with Decitabine + Crizotinib (first compound 0.04 µM) was found to be 0.979; with Decitabine + Crizotinib (first compound 0.1265 µM), 0.991; in the experiment with Decitabine + Crizotinib (first compound 0.4 µM), 0.956; in the experiment with Decitabine + Crizotinib (first compound 1.265 µM), 0.85; with Decitabine + Crizotinib (first compound 4 µM), 0.856; with Halofuginone + Foretinib (first compound 0.001 µM) it was 1.13. Further, the relative viability with Halofuginone + Foretinib (first compound 0.003162 µM) was 1.13; with Halofuginone + Foretinib (first compound 0.01 µM) it was 1.07; with Halofuginone + Foretinib (first compound 0.03162 µM), 1.09; with Halofuginone + Foretinib (first compound 0.1 µM), 0.561.
Take NCI-H1395: the relative viability came to 1.02 with Halofuginone + Foretinib (first compound 0.001 µM); 0.934 with Halofuginone + Foretinib (first compound 0.003162 µM); 0.925 with Halofuginone + Foretinib (first compound 0.01 µM); 1.06 with Halofuginone + Foretinib (first compound 0.03162 µM); 0.879 with Halofuginone + Foretinib (first compound 0.1 µM); 0.457 in experiment [1] (first compound 0.001 µM). The relative viability in experiment [1] (first compound 0.003162 µM) amounted to 0.464; in experiment [1] (first compound 0.01 µM) it was 0.442; in experiment [1] (first compound 0.03162 µM), 0.444; in experiment [1] (first compound 0.1 µM) it was 0.334; in the experiment with Halofuginone + Dasatinib (first compound 0.001 µM) it was 0.425; with Halofuginone + Dasatinib (first compound 0.003162 µM), 0.469. In addition, the relative viability in the experiment with Halofuginone + Dasatinib (first compound 0.01 µM) was 0.426; with Halofuginone + Dasatinib (first compound 0.03162 µM), 0.364; in the experiment with Halofuginone + Dasatinib (first compound 0.1 µM), 0.366.
As to NCI-H1623, the relative viability was 0.888 with Halofuginone + Foretinib (first compound 0.001 µM); 0.895 with Halofuginone + Foretinib (first compound 0.003162 µM); 0.954 with Halofuginone + Foretinib (first compound 0.01 µM); 0.876 with Halofuginone + Foretinib (first compound 0.03162 µM); 0.536 with Halofuginone + Foretinib (first compound 0.1 µM); 0.624 in experiment [1] (first compound 0.001 µM). For the same cell line, the relative viability in experiment [1] (first compound 0.003162 µM) stood at 0.548; in experiment [1] (first compound 0.01 µM), 0.59; in experiment [1] (first compound 0.03162 µM), 0.576; in experiment [1] (first compound 0.1 µM), 0.432; with Halofuginone + Dasatinib (first compound 0.001 µM) it was 0.588; with Halofuginone + Dasatinib (first compound 0.003162 µM) it was 0.43. Also, the relative viability in the experiment with Halofuginone + Dasatinib (first compound 0.01 µM) is 0.523; with Halofuginone + Dasatinib (first compound 0.03162 µM) it was 0.468; in the experiment with Halofuginone + Dasatinib (first compound 0.1 µM), 0.394.
Turning to NCI-H1703, the relative viability with Decitabine + Crizotinib (first compound 0.04 µM) was determined as 0.397; with Decitabine + Crizotinib (first compound 0.1265 µM) it was 0.419; with Decitabine + Crizotinib (first compound 0.4 µM), 0.214; with Decitabine + Crizotinib (first compound 1.265 µM), 0.263; in the experiment with Decitabine + Crizotinib (first compound 4 µM), 0.134; with Halofuginone + Foretinib (first compound 0.001 µM), 0.301. Moreover, the relative viability with Halofuginone + Foretinib (first compound 0.003162 µM) stood at 0.295; with Halofuginone + Foretinib (first compound 0.01 µM) it was 0.363; with Halofuginone + Foretinib (first compound 0.03162 µM) it was 0.294; with Halofuginone + Foretinib (first compound 0.1 µM), 0.337.
For NCI-H1792, the relative viability came out at 0.97 with Decitabine + Crizotinib (first compound 0.04 µM); 1.01 with Decitabine + Crizotinib (first compound 0.1265 µM); 0.948 in the experiment with Decitabine + Crizotinib (first compound 0.4 µM); 0.501 with Decitabine + Crizotinib (first compound 1.265 µM); 0.553 in the experiment with Decitabine + Crizotinib (first compound 4 µM); 0.233 in experiment [1] (first compound 0.001 µM). For the same cell line, the relative viability in experiment [1] (first compound 0.003162 µM) came to 0.29; in experiment [1] (first compound 0.01 µM) it was 0.256; in experiment [1] (first compound 0.03162 µM), 0.223; in experiment [1] (first compound 0.1 µM), 0.184; in the experiment with Halofuginone + Dasatinib (first compound 0.001 µM), 0.973; in the experiment with Halofuginone + Dasatinib (first compound 0.003162 µM), 0.791. In addition, the relative viability with Halofuginone + Dasatinib (first compound 0.01 µM) worked out at 0.844; with Halofuginone + Dasatinib (first compound 0.03162 µM) it was 0.76; in the experiment with Halofuginone + Dasatinib (first compound 0.1 µM), 0.607.
Turning to NCI-H1793, the relative viability with Halofuginone + Foretinib (first compound 0.001 µM) turned out to be 0.814; in the experiment with Halofuginone + Foretinib (first compound 0.003162 µM), 0.74; with Halofuginone + Foretinib (first compound 0.01 µM), 0.538; with Halofuginone + Foretinib (first compound 0.03162 µM), 0.67; with Halofuginone + Foretinib (first compound 0.1 µM) it was 0.429; in experiment [1] (first compound 0.001 µM) it was 0.438. Further, the relative viability in experiment [1] (first compound 0.003162 µM) came to 0.388; in experiment [1] (first compound 0.01 µM), 0.429; in experiment [1] (first compound 0.03162 µM), 0.328; in experiment [1] (first compound 0.1 µM), 0.332; with Halofuginone + Dasatinib (first compound 0.001 µM), 0.374; with Halofuginone + Dasatinib (first compound 0.003162 µM), 0.37. The relative viability with Halofuginone + Dasatinib (first compound 0.01 µM) was determined as 0.418; in the experiment with Halofuginone + Dasatinib (first compound 0.03162 µM), 0.468; with Halofuginone + Dasatinib (first compound 0.1 µM), 0.296.
As to NCI-H2342, the relative viability with Halofuginone + Foretinib (first compound 0.001 µM) was 1.22; with Halofuginone + Foretinib (first compound 0.003162 µM), 0.984; with Halofuginone + Foretinib (first compound 0.01 µM) it was 0.971; with Halofuginone + Foretinib (first compound 0.03162 µM) it was 0.963; with Halofuginone + Foretinib (first compound 0.1 µM), 1.08; in experiment [1] (first compound 0.001 µM), 0.719. In addition, the relative viability in experiment [1] (first compound 0.003162 µM) was determined as 0.566; in experiment [1] (first compound 0.01 µM), 0.561; in experiment [1] (first compound 0.03162 µM), 0.688; in experiment [1] (first compound 0.1 µM), 0.547; in the experiment with Halofuginone + Dasatinib (first compound 0.001 µM), 0.302; with Halofuginone + Dasatinib (first compound 0.003162 µM), 0.326. The relative viability came out at 0.309 with Halofuginone + Dasatinib (first compound 0.01 µM), 0.326 in the experiment with Halofuginone + Dasatinib (first compound 0.03162 µM) and 0.378 with Halofuginone + Dasatinib (first compound 0.1 µM).
SW 900: the relative viability stood at 1.1 in the experiment with Halofuginone + Foretinib (first compound 0.001 µM); 0.833 with Halofuginone + Foretinib (first compound 0.003162 µM); 0.809 with Halofuginone + Foretinib (first compound 0.01 µM); 0.627 with Halofuginone + Foretinib (first compound 0.03162 µM); 0.355 in the experiment with Halofuginone + Foretinib (first compound 0.1 µM); 0.657 in experiment [1] (first compound 0.001 µM). Further, the relative viability in experiment [1] (first compound 0.003162 µM) worked out at 0.565; in experiment [1] (first compound 0.01 µM), 0.695; in experiment [1] (first compound 0.03162 µM) it was 0.712; in experiment [1] (first compound 0.1 µM) it was 0.4; with Halofuginone + Dasatinib (first compound 0.001 µM) it was 1; with Halofuginone + Dasatinib (first compound 0.003162 µM), 0.677. Moreover, the relative viability in the experiment with Halofuginone + Dasatinib (first compound 0.01 µM) stood at 0.555; in the experiment with Halofuginone + Dasatinib (first compound 0.03162 µM), 0.616; with Halofuginone + Dasatinib (first compound 0.1 µM), 0.163.
